Reference: US20240132522A1, “HETEROCYCLIC COMPOUNDS AND METHODS OF USE THEREOF” (1cBio, Inc., priority 2022, published 2024)
Structures can show the parent of a compound that is named as a salt.

Target: recombinant human PARP2 (Homo sapiens, UniProt Q9UGN5)
Assay: PARP2 fluorescence polarization binding assay
Details: binding IC50, GST-tagged PARP2 20 nM, PARPi-FL probe 3 nM, 4 h at RT
Experimental: In some embodiments, the biological assay measures PARP-2 binding by way of fluorescence polarization measurements. In some embodiments, binding of a test compound to recombinant human PARP-2 reduces the amount of binding of a fluorescent probe, and consequently reduces the detected level of fluorescence polarization. […] In some embodiments, the serial dilutions, e.g., 100 nL of serial dilution, 90 nL of serial dilution, 80 nL of serial dilution, 70 nL of serial dilution, 60 nL of serial dilution, 50 nL of serial dilution, 30 nL of serial dilution, 20 nL of serial dilution, or 10 nL of serial dilution, are added to a multi-welled plate, e.g., a 1536-well plate, a 384-well plate, or a 96-well plate. In some embodiments, PARP-2, e.g., GST-tagged PARP-2, is diluted in assay buffer, e.g., 50 μL of assay buffer, 40 μL of assay buffer, e.g., 30 μL of assay buffer, 20 μL of assay buffer, 10 μL of assay buffer, or 5 μL of assay buffer, and is added to the plate. In some embodiments, the plate is centrifuged, e.g., at 1000 rpm for 1 min, and incubated, e.g., incubated for 30 minutes at room temperature (RT). In some embodiments, a fluorescent probe, e.g., 10 μL of 6 nM PARPi-FL (TOCRIS, Cat #6461), is diluted in an assay buffer and is added to the plate. […] In some embodiments, the plate is centrifuged, e.g., at 1000 rpm for 1 minute, and the assay plate is incubated, e.g., for 4 h at RT. In some embodiments, the samples in each well are read using a plate reader, e.g., an Envision instrument using excitation=480 nm, and emission wavelength=FITC FP-P pol 535 nm & FITC FP-S pol 535 nm). […] In some embodiments, binding IC50 values are calculated using XLFit (equation 201: […])^D))), where A=bottom, B=top, C=IC50, and D=slope) with a floating top and bottom for curves. Compounds of the present disclosure were tested in a PARP2 fluorescence polarization binding assay at Pharmaron (Beijing, P.R. China). In this biochemical assay, binding of test compound to recombinant human PARP2 reduces the amount of binding of a fluorescent probe, and consequently reduces the detected level of fluorescence polarization. Test compound stock solutions were prepared in DMSO and then serially diluted into 10 concentrations by 3-fold dilution in a 384-well plate using a TECAN EVO200. […] Samples in each well were read using an Envision instrument (Perkin-Elmer; Ex=480 nm Em=FITC FP-P pol 535 nm & FITC FP-S pol 535 nm). […] Binding IC50 values were calculated using XLFit (equation 201: […])^D))), where A=bottom, B=top, C=IC50, and D=slope) with a floating top and bottom for curves.

Chain of recombinant human PARP2 (Q9UGN5 whole entry): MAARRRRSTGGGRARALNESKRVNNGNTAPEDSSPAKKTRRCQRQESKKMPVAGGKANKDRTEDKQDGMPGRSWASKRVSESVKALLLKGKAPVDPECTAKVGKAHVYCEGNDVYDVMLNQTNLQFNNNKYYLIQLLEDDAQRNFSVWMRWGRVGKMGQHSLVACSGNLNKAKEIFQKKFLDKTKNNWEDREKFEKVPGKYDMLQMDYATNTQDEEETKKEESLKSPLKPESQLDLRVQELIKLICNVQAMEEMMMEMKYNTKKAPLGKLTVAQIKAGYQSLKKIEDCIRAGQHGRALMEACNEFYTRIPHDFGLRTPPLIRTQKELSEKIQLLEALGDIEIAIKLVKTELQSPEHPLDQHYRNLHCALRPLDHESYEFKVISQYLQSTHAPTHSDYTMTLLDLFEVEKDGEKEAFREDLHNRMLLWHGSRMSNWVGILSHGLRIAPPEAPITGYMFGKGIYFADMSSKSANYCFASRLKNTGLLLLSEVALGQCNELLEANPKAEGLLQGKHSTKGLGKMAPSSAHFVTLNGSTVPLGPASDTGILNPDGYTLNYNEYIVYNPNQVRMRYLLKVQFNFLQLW

Q: With CCc1cc2ncc(CN3CCCN(c4ccc(C(=O)NC)nc4)CC3)cc2[nH]c1=O [Compound No. 6, 5-(4-((7-ethyl-6-oxo-5H-1,5-naphthyridin-3-yl)methyl)-1,4-diazepan-1-yl)-N-methylpyridine-2-carboxamide] as the compound, how does the IC50 read?
A: ≥ 3 µM

Q: For CCc1cc2ncc(CN3CC4CN(c5ccc(C(=O)NC)nc5)CC4C3)cc2[nH]c1=O (stereo not shown) [Compound No. 7, 5-(5-((7-ethyl-6-oxo-5,6-dihydro-1,5-naphthyridin-3-yl)methyl)hexahydropyrrolo[3,4-c]pyrrol-2(1H)-yl)-N-methylpicolinamide], which IC50 is on record?
A: ≥ 3 µM

Q: How did the IC50 turn out when CCc1cc2ncc(CN3CC4(C3)CN(c3ccc(C(=O)NC)nc3)C4)cc2[nH]c1=O [Compound No. 9, 5-(6-((7-ethyl-6-oxo-5,6-dihydro-1,5-naphthyridin-3-yl)methyl)-2,6-diazaspiro[3.3]heptan-2-yl)-N-methylpicolinamide formate] was run?
A: ≥ 3 µM

Q: CCc1cc2ncc(CNC3CC(Nc4ccc(C(=O)NC)nc4)C3)cc2[nH]c1=O (stereo not shown) [Compound No. 29, 5-((3-(((7-ethyl-6-oxo-5,6-dihydro-1,5-naphthyridin-3-yl)methyl)amino)cyclobutyl)amino)-N-methylpicolinamide] was tested. Which IC50 did it give?
A: ≥ 3 µM
